Measurements reported in patent US6340694B1, “Diarylbenzopyran derivatives as cyclooxygenase-2 inhibitors” (Pacific Corporation, priority 1998, dated 2002).

Tests used:
[1] = molecular target: T1, COX-2 (Mus musculus, UniProt Q05769); test: Evaluation of COX-2's inhibition efficacy (PGE2 radioimmuno assay, LPS-induced, aspirin-pretreated peritoneal macrophages); type: cell-based, C57BL/6 mouse
T1 construct: endogenous in cells; host or cells: peritoneal macrophages of C57BL/6 mouse, aspirin-pretreated, LPS-induced
T1 sequence (Q05769 18-604): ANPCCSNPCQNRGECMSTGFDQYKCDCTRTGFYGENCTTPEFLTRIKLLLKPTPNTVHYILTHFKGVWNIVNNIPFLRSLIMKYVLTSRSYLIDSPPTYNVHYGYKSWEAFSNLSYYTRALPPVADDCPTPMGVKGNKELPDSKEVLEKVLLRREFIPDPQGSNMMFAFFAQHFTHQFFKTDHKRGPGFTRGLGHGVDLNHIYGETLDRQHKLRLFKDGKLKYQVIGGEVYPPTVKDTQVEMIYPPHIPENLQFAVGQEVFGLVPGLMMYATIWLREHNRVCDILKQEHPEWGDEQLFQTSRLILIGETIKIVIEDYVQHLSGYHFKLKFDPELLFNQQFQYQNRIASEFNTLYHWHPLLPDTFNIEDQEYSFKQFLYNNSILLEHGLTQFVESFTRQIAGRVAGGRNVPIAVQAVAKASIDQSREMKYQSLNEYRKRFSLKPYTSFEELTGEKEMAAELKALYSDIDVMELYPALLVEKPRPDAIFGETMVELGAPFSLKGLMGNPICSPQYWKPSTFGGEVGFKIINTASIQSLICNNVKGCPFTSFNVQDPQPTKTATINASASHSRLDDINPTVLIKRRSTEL
Protocol: Regarding the compounds in the above Examples and indomethacin, the inhibition efficacy of COX-2 and COX-1 are being measured by the following two methods. […] Evaluation of COX-2's Inhibition Efficacy (J. Pharmacol. Exp. […] After cleaning C57BL/6 mouse's abdomen by 70% EtOH, the skin of mouse's abdomen was eliminated cautiously not to harm peritomeum and 5 ml of cold PBS was poured into the abdominal cavity and in certain times later macrophage-bleeding abdominal-liquid was collected by syringe. […] After putting 1 ml cell suspension having cell number of 1×10^6 cells/mu into each 24-well microtiter plates, macrophages were adhered to the bottom of plate by culturing in the condition of 5% CO2/95% O2, at a temperature of 37° C. for 2 hours. Other cells not being adhered to were eliminated by washing two times with PBS. The purity of macrophages obtained through this process was identified by differential counting. […] After inducing COX-2 by LPS, the cell culture medium was eliminated and macrophages was washed two times with PBS. And 1 ml of RRPI-1640 badge was added to each well again and after treating them with sample with appropriate concentration, they were cultured at a temperature of 37i É for 10 minutes. And then treated them with arachidonic acid to make their final concentration as 10 μM and cultured them additional 10 minutes, all the supernatant liquid of reaction was obtained. The amount of PGE2 produced in the supernatant liquid of reaction was determined by the PGE2 radioimmuno assay.

[2] = molecular target: T2, COX-1 (Mus musculus, UniProt P22437); test: Evaluation of COX-1's inhibition efficacy (macrophages without aspirin and LPS pre-treatment); type: cell-based, C57BL/6 mouse
T2 construct: there is no pre-treatment of aspirin and LPS in the adhesion of macrophage; endogenous in cells; host or cells: peritoneal macrophages of C57BL/6 mouse, without aspirin and LPS pre-treatment
T2 sequence (P22437 27-602): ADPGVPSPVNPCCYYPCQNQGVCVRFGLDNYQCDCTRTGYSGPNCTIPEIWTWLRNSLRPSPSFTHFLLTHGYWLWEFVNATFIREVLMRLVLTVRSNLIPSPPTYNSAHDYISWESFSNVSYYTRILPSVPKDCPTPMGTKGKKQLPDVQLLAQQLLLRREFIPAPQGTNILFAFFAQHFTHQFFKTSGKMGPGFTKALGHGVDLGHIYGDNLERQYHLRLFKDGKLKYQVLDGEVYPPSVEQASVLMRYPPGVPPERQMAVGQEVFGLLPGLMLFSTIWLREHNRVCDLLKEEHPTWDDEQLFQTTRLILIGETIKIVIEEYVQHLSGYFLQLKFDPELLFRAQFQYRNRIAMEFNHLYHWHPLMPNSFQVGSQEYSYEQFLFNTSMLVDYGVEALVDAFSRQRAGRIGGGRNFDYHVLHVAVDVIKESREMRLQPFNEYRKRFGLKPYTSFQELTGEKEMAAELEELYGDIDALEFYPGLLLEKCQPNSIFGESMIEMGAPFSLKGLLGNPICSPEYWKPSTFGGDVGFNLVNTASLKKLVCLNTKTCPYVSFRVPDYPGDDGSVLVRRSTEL
Protocol: Regarding the compounds in the above Examples and indomethacin, the inhibition efficacy of COX-2 and COX-1 are being measured by the following two methods.
After cleaning C57BL/6 mouse's abdomen by 70% EtOH, the skin of mouse's abdomen was eliminated cautiously not to harm peritomeum and 5 ml of cold PBS was poured into the abdominal cavity and in certain times later macrophage-bleeding abdominal-liquid was collected by syringe. By adding RPMI-1640 badge containing penicillin(100 unit/mt) and streptomycin([…]) to cell pellet obtained by centrifugation of collected liquid about 5 minutes in 1500 rpm, it was disperesed and also COX-1 existing in the cell was inactivated by treating with 500 μM aspirin. After putting 1 ml cell suspension having cell number of 1×10^6 cells/mu into each 24-well microtiter plates, macrophages were adhered to the bottom of plate by culturing in the condition of 5% CO2/95% O2, at a temperature of 37° C. for 2 hours. Other cells not being adhered to were eliminated by washing two times with PBS. The purity of macrophages obtained through this process was identified by differential counting. After adding RPMI-1640 badge(normally 5×10^5 cell/ml) containing 3% right fetal blood serum to macrophage and treating it with LPS(lipopolysaccharide) to make final concentration as 10 μg/ml, it was cultured in the condition of 5% CO2, at a temperature of 37° C. for 16 hours. After inducing COX-2 by LPS, the cell culture medium was eliminated and macrophages was washed two times with PBS. And 1 ml of RRPI-1640 badge was added to each well again and after treating them with sample with appropriate concentration, they were cultured at a temperature of 37i É for 10 minutes. And then treated them with arachidonic acid to make their final concentration as 10 μM and cultured them additional 10 minutes, all the supernatant liquid of reaction was obtained. The amount of PGE2 produced in the supernatant liquid of reaction was determined by the PGE2 radioimmuno assay. The 100% COX-2's activation is referenced by the difference of the amount of PGE2 produced in the supernatant liquid of reaction between with 10 μM arachidonic acid treatment and without 10 μM arachidonic acid treatment.
2. Evaluation of COX-1's Inhibition Efficacy
Following the same procedure as the above evaluation of COX-2's inhibition efficacy, but there is no pre-treatment of aspirin and LPS in the adhesion of macrophage.

Row | inhibition at 0.1 µg/mL ([1]; 0.1 μg/ml) | inhibition at 1 µg/mL ([1]; 1 μg/ml) | inhibition at 10 µg/mL ([1]; 10 μg/ml) | inhibition at 10 µg/mL ([2]; 10 μg/ml) | inhibition at 1 µg/mL ([2]; 1 μg/ml) | Structure (SMILES) | further results
1 | 23% | 86% | – | – | – | NS(=O)(=O)c1ccc(-c2oc3ccc(F)cc3c(=O)c2-c2ccccc2)cc1 [Example 47, 2-(4-(Aminosulfonyl)phenyl)-6-fluoro-3-phenyl-4H-1-benzopyran-4-one] | –
2 | 39% | 100% | – | – | – | NS(=O)(=O)c1ccc(-c2oc3cc(F)ccc3c(=O)c2-c2ccc(F)cc2)cc1 [Example 59, 2-(4-(Aminosulfonyl)phenyl)-7-fluoro-3-(4-fluorophenyl)-4H-1-benzopyran-4-one] | –
3 | 69% | 97% | – | 38% | 22% | NS(=O)(=O)c1ccc(-c2oc3cc(F)ccc3c(=O)c2-c2cccc(F)c2)cc1 [Example 61, 2-(4-(Aminosulfonyl)phenyl)-7-fluoro-3-(3-fluorophenyl)-4H-1-benzopyran-4-one] | –
4 | 89% | 100% | – | 76% | 54% | NS(=O)(=O)c1ccc(-c2oc3cc(F)ccc3c(=O)c2-c2ccc(Cl)c(Cl)c2)cc1 [Example 62, 2-(4-(Aminosulfonyl)phenyl)-7-fluoro-3-(3,4-dichlorophenyl)-4H-1-benzopyran-4-one] | –
5 | < 5% | 52% | 47% | – | – | COc1ccc2c(=O)c(-c3ccc(F)cc3)c(-c3ccc(S(N)(=O)=O)cc3)oc2c1 [Example 64, 2-(4-(Aminosulfonyl)phenyl)-7-methoxy-3-(4-fluorophenyl)-4H-1-benzopyran-4-one] | –
6 | – | 67% | 93% | 73% | 24% | COc1ccc(Cl)c2oc(-c3ccc(S(N)(=O)=O)cc3)c(-c3ccc(F)cc3)c(=O)c12 [Example 65, 2-(4-(Aminosulfonyl)phenyl)-8-chloro-3-(4-fluorophenyl)-5-methoxy-4H-1-benzopyran-4-one] | –
7 | – | 83% | 90% | 80% | 40% | NS(=O)(=O)c1ccc(-c2oc3c(Cl)ccc(O)c3c(=O)c2-c2ccc(F)cc2)cc1 [Example 66, 2-(4-(Aminosulfonyl)phenyl)-8-chloro-3-(4-fluorophenyl)-5-hydroxy-4H-1-benzopyran-4-one] | –
8 | 89% | 100% | – | 83% | 58% | NS(=O)(=O)c1ccc(-c2oc3ccc(F)cc3c(=S)c2-c2ccc(F)cc2)cc1 [Example 68, 2-(4-(Aminosulfonyl)phenyl)-6-fluoro-3-(4-fluorophenyl)-4H-1-benzopyran-4-thione] | –
9 | 42% | 98% | 100% | 90% | 68% | NS(=O)(=O)c1ccc(-c2oc3ccccc3c(=S)c2-c2ccc(F)cc2)cc1 [Example 69, 2-(4-(Aminosulfonyl)phenyl)-3-(4-fluorophenyl)-4H-1-benzopyran-4-thione] | –

The remaining lines, values behind:

Row | Structure (SMILES) | inhibition at 0.1 µg/mL ([1]; 0.1 μg/ml) | inhibition at 1 µg/mL ([1]; 1 μg/ml) | inhibition at 10 µg/mL ([1]; 10 μg/ml) | inhibition at 10 µg/mL ([2]; 10 μg/ml) | inhibition at 1 µg/mL ([2]; 1 μg/ml) | further results
10 | CS(=O)(=O)c1ccc(-c2oc3ccccc3c(=O)c2-c2cccc(Cl)c2Cl)cc1 [Example 14, 3-(2,3-Dichlorophenyl)-2-(4-(methylsulfonyl)phenyl)-4H-1-benzopyran-4-one] | 18% | 32% | 71% | – | – | –
11 | Cc1cccc(-c2c(-c3ccc(S(C)(=O)=O)cc3)oc3ccccc3c2=O)c1 [Example 22, 3-(3-Methylphenyl)-2-(4-(methylsulfonyl)phenyl)-4H-1-benzopyran-4-one] | 14% | 82% | 90% | – | – | –
12 | Cc1ccccc1-c1c(-c2ccc(S(C)(=O)=O)cc2)oc2ccccc2c1=O [Example 23, 3-(2-Methylphenyl)-2-(4-(methylsulfonyl)phenyl)-4H-1-benzopyran-4-one] | 23% | 84% | 97% | – | – | –
13 | CS(=O)(=O)c1ccc(-c2oc3ccccc3c(=O)c2-c2cccc(Cl)c2)cc1 [Example 24, 3-(3-Chlorophenyl)-2-(4-(methylsulfonyl)phenyl)-4H-1-benzopyran-4-one] | 22% | 86% | 95% | – | – | –
14 | CS(=O)(=O)c1ccc(-c2oc3ccccc3c(=O)c2-c2ccccn2)cc1 [Example 33, 2-(4-(Methylsulfonyl)phenyl)-3-(2-pyridinyl)-4H-1-benzopyran-4-one] | – | 27% | 44% | 17% | – | –
15 | NS(=O)(=O)c1ccc(-c2oc3ccccc3c(=O)c2-c2ccc3c(c2)OCO3)cc1 [Example 54, 2-(4-(Aminosulfonyl)phenyl)-3-((3,4-methylenedioxy)phenyl)-4H-1-benzopyran-4-one] | – | – | – | – | – | Inhibition (%) COX-2 ([1]; 0.1 μg/ml): 20%; Inhibition (%) COX-2 ([1]; 1 μg/ml): 84%; Inhibition (%) COX-1 ([2]; 10 μg/ml): 75%
16 | CSc1ccc(-c2c(-c3ccc(S(N)(=O)=O)cc3)oc3ccccc3c2=O)cc1 [Example 56, 2-(4-(Aminosulfonyl)phenyl)-3-((4-methylthio)phenyl)-4H-1-benzopyran-4-one] | – | – | – | – | – | Inhibition (%) COX-2 ([1]; 0.1 μg/ml): 53%; Inhibition (%) COX-2 ([1]; 1 μg/ml): 84%; Inhibition (%) COX-2 ([1]; 10 μg/ml): 90%; Inhibition (%) COX-1 ([2]; 1 μg/ml): 77%; Inhibition (%) COX-1 ([2]; 10 μg/ml): 90%
17 | NS(=O)(=O)c1ccc(-c2oc3cc(F)ccc3c(=O)c2-c2ccccc2F)cc1 [Example 60, 2-(4-(Aminosulfonyl)phenyl)-7-fluoro-3-(2-fluorophenyl)-4H-1-benzopyran-4-one] | 43% | 100% | – | – | – | –
